What was measured:
CEBiP-RNAi #6 rice cells = experiment: Microarray analysis of elicitor-responsive genes, CEBiP-RNAi #6 cultured rice cells; assay type: cell-based
Excerpt: (§1) An oligoarray (Agilent) produced from a rice full-length cDNA database was used for the microarray analyses. For the preparation of Cyanine 3 (Cy3)- and Cyanine 5(Cy5)-labeled cRNAs, RNAs isolated from each of the cultured cells of NT and two kinds of CEBiP-RNAi cultured rice cells treated with (GlcNAc)8 for two hours ((GlcNAc)8-NT, (GlcNAc)8-CEBiP-RNAi #3, and (GlcNAc)8-CEBiP-RNAi #6) as well as of cultured cells treated with water as controls were used. Methods for Cy3- and Cy5-labeling and methods for hybridizing the Cy3- and Cy5-labeled samples with slide glasses onto which 22K rice oligoprobes have been attached were carried out according to the protocol from Agilent. The combinations of hybridization reagents that were used were Cy5-labeled (GlcNAc)8-NT/Cy3-labeled NT; [2] Cy5-labeled (GlcNAc)8-CEBiP-RNAi #3/Cy3-labeled CEBiP-RNAi #3; and [3] Cy5-labeled (GlcNAc)8-CEBiP-RNAi #6/Cy3-labeled CEBiP-RNAi #6. Furthermore, experiments in which the labeling reagents were swapped (the labeled forms were interchanged) were also performed. The obtained results were analyzed at http://tos.nias.affrc.go.jp/cgi-bin/tos17/array.cgi.

rice protoplasts = experiment: Reactive oxygen production in rice protoplasts, luminol method; assay type: cell-based, Oryza sativa L. cv. Nipponbare; details: 1 μL of 100 μg/mL (GlcNAc)8, 15 minutes
Protocol: Protoplasts were prepared from cultured rice cells, and the effect of the anti-Con A-CEBiP antibodies on elicitor-responsive reactive oxygen production was examined.
Cultured rice cells were strained through a metal mesh. Four days later, these cells were placed into 14 mL of 0.1% CaCl2, 0.02% MES, 9% Mannitol solution (pH 5.6) containing 2% Cellurase RS (Yakult) and 0.05% Pectolyase Y-23, and then gently shaken at 30° C. for six hours. Cells were filtered through a 25 μm nylon mesh, and the cells on the mesh were washed with 20 mL of Washing buffer (0.1% CaCl2/0.4 M Mannitol) (Nishimura, N., Tanabe, S., He, D.-Y, Yokota, T., Shibuya, N. and Minami, E. Plant Physiol. Biochem., 39, 1105-1110 (2001)). The protoplasts were collected into a 50 mL Falcon tube and recovered by centrifugation at 600 rpm for five minutes. […]
25 μL of the reacted solution, 400 μL of 50 mM potassium phosphate buffer (pH 7.9), 25 μL of 1.1 mM luminol, and 50 μL of 14 mM potassium ferricyanide were stirred in a tube, and immediately thereafter, a chemiluminescence count was measured for ten seconds using a luminometer (Turner Designs TD-20/20, Sunnyvale, Calif.). H2O2 concentration was calculated by producing a standard curve after measuring the luminescence by a commercially available H2O2 solution (aqueous 30% H2O2 solution, Wako Pure Chemical Industry).

NT cultured rice cells = experiment: Microarray analysis of elicitor-responsive genes, NT cultured rice cells; assay type: cell-based
Excerpt: as §1

NT rice cells = experiment: Reactive oxygen production due to elicitors in NT cultured rice cells; assay type: cell-based, Oryza sativa L. cv. Nipponbare; details: (GlcNAc)8 100 ng/mL; FIG. 16
Protocol: (§2) Reactive oxygen production due to sugar elicitor treatment in NT and CEBiP-RNAi cultured rice cells was analyzed as follows: NT rice calli and CEBiP-RNAi rice calli were placed into 100 mL Erlenmeyer flasks containing 30 mL of N6 medium. After culturing at 27° C. for one week, the cells were strained, 0.6 mL of cells were transferred to 30 mL of fresh medium and cultured for another four days. 60 mg or 100 mg of each of the cultured cells were placed into a 2 mL tube, 1 mL of fresh N6 medium was added, and the cells were cultured overnight. (GlcNAc)8 (100 ng/mL), Pseudomonas aeruginosa-derived lipopolysaccharide (LPS, 50 μg/mL, Sigma), and (GlcNH2)7 (2 μg/mL) were used as elicitors. An elicitor was added to NT and CEBiP-RNAi cultured rice cells, treatment was carried out for 30 minutes or two hours, then 25 μL of the medium solution was sampled for reactive oxygen measurements. As a control, a same amount of distilled water (DW) was added, and similar treatments were carried out. Reactive oxygen was measured by adding 25 μL of the reacted solution, 400 μL of 50 mM potassium phosphate buffer (PK, pH 7.9), 25 μL of 1.1 mM luminol, and 50 μL of 14 mM potassium ferricyanide to a tube, mixing, then immediately measuring chemiluminescence counts for ten seconds in a luminometer (Turner Design TD-20/20, Sunnyvale, Calif.).

CEBiP-RNAi rice cells = experiment: Reactive oxygen production due to elicitors in CEBiP-RNAi cultured rice cells; assay type: cell-based, Oryza sativa L. cv. Nipponbare; details: (GlcNH2)7 2 μg/mL
Protocol: as §2

CEBiP gene expression = experiment: Effect of elicitor on CEBiP expression in cultured cells (FIG. 10); assay type: cell-based, rice
[1] = (GlcNAc)8-CEBiP-RNAi #6/CEBiP-RNAi #6 area, two hours
[2] = (GlcNAc)8 two hours vs water, CEBiP-RNAi #6 cells
[3] = CEBiP-RNAi #6 cells vs non-transformant
[4] = (GlcNAc)8-NT/NT area, two hours
[5] = (GlcNAc)8 two hours vs water, NT cultured rice cells

## CC(=O)N[C@H]1[C@H](O[C@H]2[C@H](O)[C@@H](NC(C)=O)[C@H](O[C@H]3[C@H](O)[C@@H](NC(C)=O)[C@H](O[C@H]4[C@H](O)[C@@H](NC(C)=O)C(O)O[C@@H]4CO)O[C@@H]3CO)O[C@@H]2CO)O[C@H](CO)[C@@H](O[C@@H]2O[C@H](CO)[C@@H](O[C@@H]3O[C@H](CO)[C@@H](O[C@@H]4O[C@H](CO)[C@@H](O[C@@H]5O[C@H](CO)[C@@H](O)[C@H](O)[C@H]5NC(C)=O)[C@H](O)[C@H]4NC(C)=O)[C@H](O)[C@H]3NC(C)=O)[C@H](O)[C@H]2NC(C)=O)[C@@H]1O (stereo partly shown) [(GlcNAc)8]
CEBiP-RNAi #6 rice cells; [1]
  number of genes whose expression level decreased: 90 genes
  number of genes whose expression level increased: 361 genes
CEBiP-RNAi #6 rice cells; [2]
  FOLD INCREASE RNAi #6 AK058891 β-1.3 glucanase: 11.4 fold
  FOLD INCREASE RNAi #6 AK060582 Replication protein A1(Os-RPA1): 2.8 fold
  FOLD INCREASE RNAi #6 AK060834 Calreticulin: 14.2 fold
  FOLD INCREASE RNAi #6 AK065812 Zea mays NADPH HC toxin reductase: 16.0 fold
  FOLD INCREASE RNAi #6 AK066784 Small GTP-binding protein (rab5A): 2.5 fold
  FOLD INCREASE RNAi #6 AK067690 NAC Transcription factor: 3.4 fold
  FOLD INCREASE RNAi #6 AK068115 Harpin induced protein: 10.1 fold
  FOLD INCREASE RNAi #6 AK068993 PAL: 2.9 fold
  FOLD INCREASE RNAi #6 AK072235 Cysteine proteinase: 5.5 fold
  FOLD INCREASE RNAi #6 AK100959 beta-Expansin(EXPB3): 5.4 fold
  FOLD INCREASE RNAi #6 AK102192 β-Galactosidase: 2.8 fold
  FOLD INCREASE RNAi #6 AK103094 Laccase: 2.1 fold
  FOLD INCREASE RNAi #6 AK103707 Ribosome inactivating protein 2: 27.8 fold
CEBiP-RNAi #6 rice cells; [3]
  genes of the 746 increased in NT showing a suppression of two times or more: 45 genes
  genes of the 746 increased in NT showing suppression of two times or more or loss of elicitor responsiveness: 530 genes
  share of the 746 increased genes showing suppression of two times or more or loss of elicitor responsiveness: 71%
CEBiP-RNAi #6 rice cells; elicitor treatment
  genes of the 361 increased in CEBiP-RNAi #6 with increased expression levels compared to NT cells: one hundred
  genes whose expression level decreased with equivalent response in non-transformant and CEBiP-RNAi #6 rice cells: 44 genes
  genes whose expression level increased with equivalent response in non-transformant and CEBiP-RNAi #6 rice cells: 216 genes
  share of the 361 increased genes with increased expression levels compared to NT cells: approximately 28%
CEBiP-RNAi #6 rice cells; vs non-transformants
  genes decreased in NT showing suppression of two times or more or a loss in CEBiP-RNAi #6: 176 genes
  share of genes decreased in NT showing suppression of two times or more or a loss in CEBiP-RNAi #6: 80%
Rice protoplasts
  production of reactive oxygen increase compared to the control: 1.7 times
NT cultured rice cells; [4]
  number of genes whose expression level decreased: 220 genes
  number of genes whose expression level increased: 746 genes
NT cultured rice cells; [5]
  FOLD INCREASE NT* AK058296 1-aminocyclopropane-1-carboxylate oxidase: 6.6 fold
  FOLD INCREASE NT* AK058891 β-1.3 glucanase: 4.1 fold
  FOLD INCREASE NT* AK060423 Alanine:glyoxylate aminotransferase like protein: 11.2 fold
  FOLD INCREASE NT* AK060582 Replication protein A1(Os-RPA1): 4.6 fold
  FOLD INCREASE NT* AK060625 GDSL-motif lipase/hydrolase: 6.4 fold
  FOLD INCREASE NT* AK060834 Calreticulin: 3.3 fold
  FOLD INCREASE NT* AK063651 Harpin induced protein: 24.7 fold
  FOLD INCREASE NT* AK066687 Shikimate kinase: 9.5 fold
  FOLD INCREASE NT* AK066784 Small GTP-binding protein (rab5A): 2.1 fold
  FOLD INCREASE NT* AK067690 NAC Transcription factor: 2.4 fold
  FOLD INCREASE NT* AK068115 Harpin induced protein: 43.1 fold
  FOLD INCREASE NT* AK068993 PAL: 48.4 fold
  FOLD INCREASE NT* AK069456 Peroxidase: 10.9 fold
  FOLD INCREASE NT* AK071482 Caffeoyl-CoA 3-O-methyl-transferase: 11.3 fold
  FOLD INCREASE NT* AK071598 Lipid transfer protein: 10.0 fold
  FOLD INCREASE NT* AK072235 Cysteine proteinase: 4.3 fold
  FOLD INCREASE NT* AK073072 CEBiP: 2.6 fold
  FOLD INCREASE NT* AK100959 beta-Expansin(EXPB3): 5.5 fold
  FOLD INCREASE NT* AK101431 Patatin-like protein: 19.6 fold
  FOLD INCREASE NT* AK102192 β-Galactosidase: 3.1 fold
  FOLD INCREASE NT* AK103094 Laccase: 10.0 fold
  FOLD INCREASE NT* AK105971 Pirin: 20.6 fold
NT rice cells
  production of reactive oxygen in NT rice cells, LPS treatment in NT defined as 100%: approximately 86.3%

## N[C@H]1[C@H](O[C@H]2[C@H](O)[C@@H](N)[C@H](O[C@H]3[C@H](O)[C@@H](N)[C@H](O[C@H]4[C@H](O)[C@@H](N)[C@H](O[C@H]5[C@H](O)[C@@H](N)[C@H](O[C@H]6[C@H](O)[C@@H](N)[C@H](O[C@H]7[C@H](O)[C@@H](N)C(O)O[C@@H]7CO)O[C@@H]6CO)O[C@@H]5CO)O[C@@H]4CO)O[C@@H]3CO)O[C@@H]2CO)O[C@H](CO)[C@@H](O)[C@@H]1O (stereo partly shown) [(GlcNH2)7]
CEBiP-RNAi rice cells
  reactive oxygen responsiveness in both CEBiP-RNAi lines: Non-responsiveness

## CC(=O)N[C@H]1[C@H](O[C@H]2[C@H](O)[C@@H](NC(C)=O)[C@H](O[C@H]3[C@H](O)[C@@H](NC(C)=O)[C@H](O[C@H]4[C@H](O)[C@@H](NC(C)=O)C(O)O[C@@H]4CO)O[C@@H]3CO)O[C@@H]2CO)O[C@H](CO)[C@@H](O[C@@H]2O[C@H](CO)[C@@H](O[C@@H]3O[C@H](CO)[C@@H](O[C@@H]4O[C@H](CO)[C@@H](O)[C@H](O)[C@H]4NC(C)=O)[C@H](O)[C@H]3NC(C)=O)[C@H](O)[C@H]2NC(C)=O)[C@@H]1O (stereo partly shown) [chitin oligosaccharide elicitor]
CEBiP gene expression
  induction of expression of the target gene (CEBiP): induce expression
